# Assay results taken from the NIST ThermoML archive (doi:10.1016/j.jct.2008.01.025).
# ± gives the expanded uncertainty stated by the source.
# Columns and labels:
# [1] = refractive index (Na D-line) (dimensionless); details: 298.15 K; 101.33 kPa; Liquid; Standard Abbe refractometry
# [2] = 298.15 K, 101.33 kPa, Liquid
Compound,refractive index [1],mass density [2] [kg/m3],mass density ([2]; Vibrating tube method) [kg/m3]
CCCCCCCCCCCC [dodecane],1.42011 ± 0.0004,745.32 ± 0.91,–
CCCCCCCCCCCCCCCC [hexadecane],1.43232 ± 0.0004,771.15 ± 0.85,–
CCCCCCCC[n+]1ccn(C)c1.F[B-](F)(F)F [1-methyl-3-octylimidazolium tetrafluoroborate],1.43329 ± 0.00069,–,1104.42 ± 2.3
CCCCCCC [heptane],1.38517 ± 0.00036,679.466 ± 0.66,–
c1ccsc1 [thiophene],1.52581 ± 0.00036,1058.5 ± 0.28,–
